Consider 13 molecules from patent US11654149B2, “Calmodulin inhibitors for the treatment of ribosomal disorders and ribosomapathies” (CHILDREN'S MEDICAL CENTER CORPORATION, priority 2012, dated 2023).

“Also recorded” adds a separate entry of the source. Where a name gives a salt, the structure may show the parent alone.

The subject of one data set is Human CD34+ cells. Put plainly: in vitro erythroid differentiation assay of CD34+ cells with RPS19 shRNA. Further details: p21 mRNA: dose or concentration left out as unconfirmed. Conditions: for rescue of CD71+ expression: day 10 of erythroid differentiation, flow cytometry. The class given is cell-based. The method, then:
(§1) A549 and CD34+ cells were infected with previously characterized lentiviral shRNA targeting RPS19 (Dutt et al., 2011). Unless otherwise noted, drugs were added one day post infection, and cells were collected for analysis 3-6 days post infection.
As DBA is a hematopoietic disorder, the inventors next tested the effects of A-3 in CD34+ cells with RPS19 knockdown by siRNA. In an in vitro system that mimics the differentiation of erythrocytes in vivo, the inventors knocked down RPS19 using shRNA. Human CD34+ cells are expanded in culture for 4 days and then infected with RPS19 shRNA or luciferase control shRNA lentiviral construct, selected with puromycin for 2 days and on day 7, the media is replaced with media containing high EPO to initiate erythroid differentiation (FIG. 6A). When RPS19 is reduced during erythroid differentiation, p21 mRNA levels increased about 6-fold compared to luciferase-infected controls and the transferrin receptor, CD71+ and a marker that is first detected at the proerythroblast stage, glycophorin A (GPA), are reduced 40% and 50%, respectively (Dutt et al., 2011).
For orientation: In flow cytometry, cells or beads pass a laser one at a time.

For data set [1] the following is noted: cited from earlier work.
Data set [2] relates to rps29−/− zebrafish embryos. In words: flk1 whole-mount in situ hybridization (intersegmental vessel staining) in rps29−/− embryo chemical screen. Conditions: rps29−/− embryos treated from bud to 23 hpf, flk1 ISH at 24 hpf. Format: in vivo. How it is done:
Fish were maintained under approved laboratory conditions.
(§2) Whole-mount in situ hybridization (ISH) was performed as described (Thisse and Thisse, 2008). Antisense probes were synthesized from digested plasmid. O-Dianisidine was performed as described previously (Paffett-Lugassy and Zon, 2005).

For a further data set, the system named is rps29 mutant embryos. Put plainly: benzidine staining for hemoglobin levels in rps29 mutant embryos. Format: in vivo, zebrafish. Conditions: benzidine staining at 40 hpf. How it is done:
Fish were maintained under approved laboratory conditions. […] .
as §2

Data set [3] concerns rps29−/− zebrafish embryos. Put plainly: head morphology scoring in rps29−/− embryo chemical screen. The following applies: 24 hpf.
Protocol: Fish were maintained under approved laboratory conditions. Studies were performed on AB wildtype strains and hi2903, an insertional mutant in the first intron of ribosomal protein S29 (rps29). Embryos were subjected to chemicals diluted in E3. For screening, chemicals from ICCB Biomol Known Bioactive, Sigma, and Lopac libraries were tested at 1:300 dilutions from library stock. Compounds were tested in two independent experiments of 20 embryos each, so approximately 10 mutant embryos were scored per chemical. […] Nimodipine (Enzo) was diluted in DMSO and tested in doses from 1.5 to 20 μg/mL. SNAP (Cayman) was diluted in DMSO and tested in doses from 0.5 to 5 μg/mL. YS-035 (Sigma) was diluted in water and treated in doses from 0.8 to 8 μg/mL. Vinpocetine (Enzo) was diluted in ethanol and treated in doses from 0.3 to 3 μg/mL.
A screen was performed to identify chemicals that could rescue the endothelial and morphological defects of the rps29^−/− mutant embryo (FIG. 1A). Rps29^−/− fish were incrossed, and embryos were collected for treatment at bud stage (10 hpf). Embryos were treated from bud to 23 hpf with compounds of known bioactivity. After being scored for rescue of head morphology, embryos were fixed at 24 hpf for in situ hybridization of flk1 and rps29. Embryos without rps^29 staining (rps29^−/− mutants) were scored for rescue of flk1 intersegmental vessel staining.
Data set [4] has as its system A549 cells. In words: immunofluorescence staining for p53 and p21 nuclear localization in A549 cells with RPS19 knockdown. The class given is cell-based. The following applies: for p53 nuclear staining intensity: p=0.00028 for A-3; for p53 nuclear accumulation: A549 cells. The method, then:
as §1
(§3) For flow cytometry based measurement of protein levels, cells were fixed in 2% paraformaldehyde for 15 minutes at 37° C., and methanol was added for overnight incubation at 4° C. Cells were incubated for one hour in 1:100 diluted p21 primary antibody (Cell Signaling 12D1) followed by one hour in conjugated secondary antibody and 1:50 diluted p53-conjugated antibody (Cell Signaling 1C12). Immunofluorescence staining was performed as previously described (Dutt et al., 2011).
Immunofluorescence staining for p53 and p21 was performed on chemically treated cells (FIG. 4A). For 10-15 cells per condition, average nuclear and cytoplasmic intensity was determined using ImageJ.

The next data set relates to CD34+ cells. In words: p21 protein by FACS in CD34+ cells with RPS19 knockdown in erythroid proliferation media. The class given is cell-based, human. The method, then:
as §1, §3
As DBA is a hematopoietic disorder, the inventors next tested the effects of A-3 in CD34+ cells with RPS19 knockdown by siRNA. In an in vitro system that mimics the differentiation of erythrocytes in vivo, the inventors knocked down RPS19 using shRNA. […] When RPS19 is reduced during erythroid differentiation, p21 mRNA levels increased about 6-fold compared to luciferase-infected controls and the transferrin receptor, CD71+ and a marker that is first detected at the proerythroblast stage, glycophorin A (GPA), are reduced 40% and 50%, respectively (Dutt et al., 2011).

The test system of data set [5] is A549 cells. In words: cell cycle status by flow cytometry (propidium iodide) in A549 cells. Format: cell-based. The method, then:
(§4) FIGS. 4A-4D show treatment with A-3 inhibits p53 and p21 nuclear localization upon rps19 knockdown.
as §1

Data set [6] deals with A549 cells. In words: flow cytometry of p53 and p21 protein in A549 cells with RPS19 shRNA. The class given is cell-based. Conditions: for p21 protein level / p53 protein level: A549, RPS19 shRNA, drug 24 hours post infection, analyzed 3-6 days post infection. The method, then:
as §1, §3
The inventors next tested the effect of calmodulin inhibitors in A549 cells, where p53 is not mutated and is induced upon ribosomal protein knockdown (Fumagalli et al., 2009). A549 cells were infected with control or RPS19 shRNA and treated with A-3 or TFP 24 hours post infection. Cells were analyzed 3-6 days post infection. […] In addition, removal of drug leads to an increase in p21 levels within 24 hours (data not shown).

For data set [7], the system named is calmodulin dependent PDE1. The following applies: cited from earlier work.
Data set [8] concerns A549 cells. In words: flow cytometry for annexin and propidium iodide in A549 cells. Format: cell-based. How it is done:
as §4, §1

For data set [9], the system named is human T cells subjected to ionizing radiation. The following applies: read-out: EC50, prevention of apoptosis; cited from earlier work.
Data set [10] concerns ion channel currents (calcium, potassium and sodium channels). The following applies: in vitro experiments and in animals; cited from earlier work.
[11] abbreviates: A549, RPS19 knockdown, ImageJ, 10-15 cells per condition.

Consider `OCCN1CCN(CCCN2c3ccccc3Sc3ccc(Cl)cc32)CC1` [perphenazine, 4-[3-(2-Chloro-10H-phenothiazin-10-yl)propyl]-1-piperazineethanol], for which the “rescue of blood cell differentiation” value in the data set with Human CD34+ cells is “can rescue blood cell differentiation”. For the same molecule, in data set [1], the oral bioavailability result is “approximately 40%”.

In the case of `CC1(CN2CCC(n3c(=O)[nH]c4ccccc43)CC2)OCc2ccccc2-n2cccc21` (centres unmarked) [CGS-9343B, zaldaride maleate], the “rescue of flk1 expression / vasculature defect” value in data set [2] is on record as “rescued flk1 expression”.

For `COc1ccc(CCN(C)CCc2ccc(OC)c(OC)c2)cc1OC` [YS-035], the “rescue of flk1 expression / vasculature defect” value in [2] was “rescued the vasculature defect”.

For `Cl.NCCCCCCNS(=O)(=O)c1cccc2ccccc12` [W-5], the “rescue of flk1 expression / vasculature defect” value in data set [2] is “rescue the vasculature defect”.

For the molecule `CCOC(=O)C1=C[C@]2(CC)CCCN3CCc4c(n1c1ccccc41)[C@@H]32` [Vinpocetine, ethyl apovincaminate], in data set [2], the “rescue of flk1 expression / vasculature defect” value is reported as “a hit in the screen”.

`NCCNS(=O)(=O)c1cccc2c(Cl)cccc12` [A-3]: the “rescue of hemoglobin levels” value with rps29 mutant embryos is recorded as “rescue hemoglobin levels”. Also, in [3], the “rescue of head morphology” value is reported as “rescued the morphology”. Further, in the data set on A549 cells [4] (setting [11]), the “p53 nuclear staining intensity” value was “decreased”. Besides, in the data set with A549 cells [4] (A549, RPS19 knockdown, ImageJ, 10-15 cells per condition, p=0.007 for A-3), the “p21 nuclear staining intensity” value is “decreased”. In addition, the p53 nuclear accumulation entry in the data set on A549 cells [4] was “reversed p53 nuclear accumulation”. In the data set with CD34+ cells (CD34+ cells in an erythroid cell population in vitro), the “concentration decreasing the levels of p21 in CD34+ cells” value is 1 to 50 µM. The p21 protein entry in the data set with CD34+ cells (CD34+ cells, RPS19 knockdown, erythroid proliferation media) was “decrease p21 protein”. Besides, in the data set on A549 cells [5], the “effect on RPS19 shRNA induced cell cycle arrest” value was “no obvious effect”. In addition, the “rescue of flk1 expression / vasculature defect” value in [2] is listed as “did not rescue the vasculature”. In the data set with A549 cells [6], the p21 protein level result is on record as “statistically significant decrease; also recorded: decrease of p21 protein” and the p53 protein level result is given as “still increased; also recorded: without a matching decrease of p53”. Besides, the “time of treatment until p21 protein levels begin to decrease” value with A549 cells [6] (A549, shorter treatment windows (FIG. 3E-3F, timecourse of A-3 treatment)) is no more than 1.5 h. Moreover, the “inhibition of calmodulin dependent PDE1 compared with other calmodulin-dependent enzymes” value in data set [7] is reported as “less effective inhibitor”. The “annexin V positivity” value with A549 cells [8] is “increased annexin V positivity”.

In the case of `CC(=O)N[C@@H](C(=O)O)C(C)(C)SN=O` (racemic) [SNAP], the “rescue of flk1 expression / vasculature defect” value in data set [2] is “rescued flk1 intersegmental vessel staining”.

For the molecule `CN1CCN(CCCN2c3ccccc3Sc3ccc(C(F)(F)F)cc32)CC1` [TFP, 10-[3-(4-methylpiperazin-1-yl)propyl]-2-(trifluoromethyl)-10H-phenothiazine], the “rescue of blood cell differentiation” value with Human CD34+ cells was “can rescue blood cell differentiation”. Moreover, in the data set with Human CD34+ cells (RPS19 shRNA, quantitative PCR), the “p21 mRNA” value is “decreased p21 mRNA to control levels”. In addition, in the data set on Human CD34+ cells (RPS19 shRNA), the “rescue of CD71+ expression” value is reported as “rescue CD71+ expression”. The “concentration restoring the percentage of CD71+ cells” value with Human CD34+ cells (erythroid cell population in vitro) fell in the range of 5 to 20 µM. The “p53 nuclear staining intensity” value with A549 cells [4] (setting [11]) is “same effect was seen”. For the same molecule, the p53 nuclear accumulation entry in the data set on A549 cells [4] is recorded as “reversed p53 nuclear accumulation”. For the same molecule, the “effect on RPS19 shRNA induced cell cycle arrest” value with A549 cells [5] is given as “no obvious effect”. In addition, the “rescue of flk1 expression / vasculature defect” value in [2] was “rescued flk1 expression”. Besides, in the data set with A549 cells [6], the p21 protein level entry is given as “statistically significant decrease; also recorded: decrease of p21 protein” and the p53 protein level result was “still increased; also recorded: without a matching decrease of p53”. The “annexin V positivity” value in the data set with A549 cells [8] is “increased annexin V positivity”.

With `Cl.NCCCCCCNS(=O)(=O)c1cccc2c(Cl)cccc12` [W-7, N-(6-Aminohexyl)-5-chloro-1-naphthalenesulfonamide hydrochloride], the “rescue of hemoglobin levels” value in the data set on rps29 mutant embryos is “rescues hemoglobin levels”. Besides, the “rescue of flk1 expression / vasculature defect” value in data set [2] is reported as “rescue flk1 expression”.

`Cl.NCCCCCCCCCCNS(=O)(=O)c1cccc2c(Cl)cccc12` [A-7]: the “rescue of flk1 expression / vasculature defect” value in [2] is listed as “rescue the vasculature defect”.

Take `OCCN1CCN(CCCN2c3ccccc3Sc3ccc(C(F)(F)F)cc32)CC1` [fluphenazine, 4-[3-[2-(trifluoromethyl)phenothiazin-10-yl]propyl]-1-piperazineethanol]: in the data set on Human CD34+ cells, the “rescue of blood cell differentiation” value is “can rescue blood cell differentiation”. Also, the “rescue of CD71+ expression” value in the data set with Human CD34+ cells (RPS19 shRNA) was “rescue CD71+ expression”.

On to `NC(=O)c1ccc2[nH]c(-c3ccc(Oc4ccc(Cl)cc4)cc3)nc2c1` [BML-277], for which the “rescue of CD71+ levels” value in the data set with Human CD34+ cells (inhibitor panel against individual calmodulin-dependent enzymes) is recorded as “rescued CD71+ levels”. Also, in the data set on A549 cells [4], the p53 nuclear accumulation entry is reported as “prevented nuclear accumulation of p53”. For the same molecule, the EC50 in data set [9] was 3 to 7.6 µM.

Take `CC(C)COCC(CN(Cc1ccccc1)c1ccccc1)N1CCCC1` (centres unmarked) [bepridil]: the “IC50 for these processes” value in data set [10] is on record as “low micromolar range”.

For orientation: EC50 means the concentration giving half of the maximal effect.
